{
  "source": "patent US20250000881A1",
  "about": "“TREATMENT OF TREATMENT RESISTANT […] PSILOCYBIN” (COMPASS […], priority 2021, published 2025)",
  "key": {"[1]": {"tested_on": "adult subjects with TRD", "assay": "Phase 2b trial in TRD: Work and Social Adjustment Scale (WSAS)", "format": "in vivo, human", "conditions": "25 mg vs 1 mg, week 3", "experimental": "(§1) Other objectives were to evaluate the effects of psilocybin on quality of life and wellbeing, functioning and associated disability, cognitive function, and anxiety compared to 1 mg psilocybin on: • (a) Quality of life in subject EuroQoL (EQ)-5 dimension-3 level scale (EQ-5D-3L) score change from Baseline to week 3. This will also be assessed at week 12. This assessment was not mandatory. • (b) Quality of life in caregiver EQ-5D-3L score change from Baseline to week 3. This was assessed at week 12. • (c) Functioning and associated disability in the Sheehan Disability Scale (SDS) score change from Baseline to week 3. This was also assessed at week 12. • (d) Cognitive function as measured by the Digit Symbol Substitution Test (DSST) score change from baseline to week 3. This was assessed at day 1 and week 12. • (e) Level of anxiety as measured using the change in Generalised Anxiety Disorder 7 item Scale (GAD-7) total score change from baseline to week 3. This was assessed at week 12. • (f) Subject determined level of depression as measured using the change in Quick Inventory of Depressive Symptomatology Self-Rated (QIDS-SR-16) total score from Baseline to week 3. […] This was assessed at week 12. • (h) To evaluate the impact of different psilocybin doses on real life functional activity estimated from passive data streams collected on a mobile app on subjects' mobile phones. […]"}, "[2]": {"tested_on": "adult subjects with TRD", "assay": "Phase 2b trial in TRD: QIDS-SR-16 self-reported depression", "format": "in vivo, human", "conditions": "25 mg vs 1 mg group, week 3", "experimental": "as §1"}, "[3]": {"tested_on": "participants with TRD from Example 2", "assay": "Long term follow-up study: MADRS responders, remitters, sustained responders to week 52", "format": "in vivo, human", "experimental": "(§2) The following example is a long term follow up of study of a sustained responder population from Example 2. 58 participants from Example 2 were selected for a long term 52 week follow up study. Of the 58 patients, 22 received a 25 mg dose of psilocybin, 19 received a 10 mg dose of psilocybin, and 17 received a 1 mg dose of psilocybin. […] None of the patients in this study received treatment for depression before their week 12 MADRS visit in Example 2. Patients were analyzed for a change in MADRS total score from Baseline to 12, 16, 20, 24, 28, 40, and 52 weeks.\nThe secondary endpoint of this study was to determine the change in MADRS total score from Baseline to 12, 16, 20, 24, 28, 40, and 52 weeks post treatment. […] Note, “n*” changed to account for subjects that dropped out the long term study."}, "[4]": {"tested_on": "participants with TRD from Example 2", "assay": "Long term follow-up study: time to any depressive event (KM quartiles)", "format": "in vivo, human", "experimental": "as §2\nThe primary endpoint of this study was to determine the median time to a depressive event after administration of psilocybin. The depressive event includes: • Initiation of new antidepressant treatment (first new antidepressant treatment in time period only); • Hospitalization due to depression/suicidality; • Suicide attempt, prevention of an imminent suicide attempt, or completed suicide; • Increased suicidality measured by worsening on MADRS item 10; • Active suicidal ideation measured by the C-SSRS; • MADRS worsening; and • Discontinuation for adverse event or lack of efficacy."}, "[5]": {"assay": "Solubility in water"}, "[6]": {"tested_on": "adult subjects with TRD", "assay": "Phase 2b trial in TRD: EQ-5D-3L and EuroQoL Visual Analogue Scale quality of life", "format": "in vivo, human", "conditions": "25 mg vs 1 mg, week 3", "experimental": "as §1"}, "[7]": {"tested_on": "adult subjects with TRD", "assay": "Phase 2b trial in TRD: Digit Symbol Substitution Test (DSST)", "format": "in vivo, human", "conditions": "25 mg vs 1 mg groups, week 3", "experimental": "as §1"}},
  "note": "“And” between values parts separate entries of the source, which are not always exact repeats. Equal entries are not always repeated.",
  "data": [
    {"smiles": "CN(C)CCc1c[nH]c2cccc(OP(=O)(O)O)c12", "note": "[COMP360, psilocybin]", "values": [
      {"measurement": "WSAS treatment difference", "setting": "[1]", "value": "−5.11"},
      {"measurement": "QIDS-SR-16 total score, least squares mean treatment difference (95% confidence intervals)", "setting": "[2]", "value": "−2.78 (−4.62, −0.95)"},
      {"measurement": "MADRS remitters (MADRS total score≤10)", "setting": "[3]; 1 mg (N = 17), Week 3", "value": "0/11"},
      {"measurement": "MADRS remitters (MADRS total score≤10)", "setting": "[3]; 1 mg (N = 17), Week 9", "value": "0/8"},
      {"measurement": "MADRS relaxed sustained responders", "setting": "[3]; 1 mg (N = 17), Week 12", "value": "0/7"},
      {"measurement": "MADRS remitters (MADRS total score≤10)", "setting": "[3]; 1 mg (N = 17), Week 12", "value": "0/7"},
      {"measurement": "MADRS sustained responders (response at Week 3 and all subsequent visits)", "setting": "[3]; 1 mg (N = 17), Week 12", "value": "0/7"},
      {"measurement": "MADRS relaxed sustained responders", "setting": "[3]; 1 mg (N = 17), Week 16", "value": "0/5"},
      {"measurement": "MADRS remitters (MADRS total score≤10)", "setting": "[3]; 1 mg (N = 17), Week 16", "value": "0/5"},
      {"measurement": "MADRS responders (≥50% reduction from baseline in MADRS total score)", "setting": "[3]; 1 mg (N = 17), Week 16", "value": "0/5"},
      {"measurement": "MADRS sustained responders (response at Week 3 and all subsequent visits)", "setting": "[3]; 1 mg (N = 17), Week 16", "value": "0/5"},
      {"measurement": "MADRS relaxed sustained responders", "setting": "[3]; 1 mg (N = 17), Week 20", "value": "0/4"},
      {"measurement": "MADRS remitters (MADRS total score≤10)", "setting": "[3]; 1 mg (N = 17), Week 20", "value": "0/4"},
      {"measurement": "MADRS sustained responders (response at Week 3 and all subsequent visits)", "setting": "[3]; 1 mg (N = 17), Week 20", "value": "0/4"},
      {"measurement": "MADRS sustained responders (response at Week 3 and all subsequent visits)", "setting": "[3]; 1 mg (N = 17), Week 24", "value": "0/4"},
      {"measurement": "MADRS relaxed sustained responders", "setting": "[3]; 1 mg (N = 17), Week 28", "value": "0/4"},
      {"measurement": "MADRS remitters (MADRS total score≤10)", "setting": "[3]; 1 mg (N = 17), Week 28", "value": "0/4"},
      {"measurement": "MADRS sustained responders (response at Week 3 and all subsequent visits)", "setting": "[3]; 1 mg (N = 17), Week 28", "value": "0/4"},
      {"measurement": "MADRS relaxed sustained responders", "setting": "[3]; 1 mg (N = 17), Week 40", "value": "0/4"},
      {"measurement": "MADRS sustained responders (response at Week 3 and all subsequent visits)", "setting": "[3]; 1 mg (N = 17), Week 40", "value": "0/4"},
      {"measurement": "MADRS relaxed sustained responders", "setting": "[3]; 1 mg (N = 17), Week 52", "value": "0/4"},
      {"measurement": "MADRS remitters (MADRS total score≤10)", "setting": "[3]; 1 mg (N = 17), Week 52", "value": "0/4"},
      {"measurement": "MADRS responders (≥50% reduction from baseline in MADRS total score)", "setting": "[3]; 1 mg (N = 17), Week 52", "value": "0/4"},
      {"measurement": "MADRS sustained responders (response at Week 3 and all subsequent visits)", "setting": "[3]; 1 mg (N = 17), Week 52", "value": "0/4"},
      {"measurement": "MADRS remitters (MADRS total score≤10)", "setting": "[3]; 10 mg (N = 19), Week 16", "value": "0/5"},
      {"measurement": "MADRS relaxed sustained responders", "setting": "[3]; 10 mg (N = 19), Week 20", "value": "0/3"},
      {"measurement": "MADRS sustained responders (response at Week 3 and all subsequent visits)", "setting": "[3]; 10 mg (N = 19), Week 20", "value": "0/3"},
      {"measurement": "MADRS sustained responders (response at Week 3 and all subsequent visits)", "setting": "[3]; 10 mg (N = 19), Week 24", "value": "0/3"},
      {"measurement": "MADRS sustained responders (response at Week 3 and all subsequent visits)", "setting": "[3]; 10 mg (N = 19), Week 28", "value": "0/4"},
      {"measurement": "MADRS sustained responders (response at Week 3 and all subsequent visits)", "setting": "[3]; 10 mg (N = 19), Week 40", "value": "0/5"},
      {"measurement": "MADRS sustained responders (response at Week 3 and all subsequent visits)", "setting": "[3]; 10 mg (N = 19), Week 52", "value": "0/5"},
      {"measurement": "MADRS relaxed sustained responders", "setting": "[3]; 25 mg (N = 22), Week 40", "value": "0/6"},
      {"measurement": "MADRS remitters (MADRS total score≤10)", "setting": "[3]; 25 mg (N = 22), Week 40", "value": "0/6"},
      {"measurement": "MADRS sustained responders (response at Week 3 and all subsequent visits)", "setting": "[3]; 25 mg (N = 22), Week 40", "value": "0/6"},
      {"measurement": "MADRS remitters (MADRS total score≤10)", "setting": "[3]; 25 mg (N = 22), Week 52", "value": "0/6"},
      {"measurement": "MADRS sustained responders (response at Week 3 and all subsequent visits)", "setting": "[3]; 25 mg (N = 22), Week 52", "value": "0/6"},
      {"measurement": "Time to any depressive event, KM Q1, estimate (95% CI)", "setting": "[4]; 1 mg (N = 17)", "value": "6.0 (2.0, 14.0) days"},
      {"measurement": "Time to any depressive event, KM Q2 (median), estimate (95% CI)", "setting": "[4]; 1 mg (N = 17)", "value": "21 days and 21.0 (3.0, 78.0) days"},
      {"measurement": "Time to any depressive event, KM Q3, estimate (95% CI)", "setting": "[4]; 1 mg (N = 17)", "value": "78.0 (21.0, —) days"},
      {"measurement": "Time to any depressive event, KM Q1, estimate (95% CI)", "setting": "[4]; 10 mg (N = 19)", "value": "19.0 (2.0, 41.0) days"},
      {"measurement": "Time to any depressive event, KM Q2 (median), estimate (95% CI)", "setting": "[4]; 10 mg (N = 19)", "value": "43 days and 43.0 (19.0, 142.0) days"},
      {"measurement": "Time to any depressive event, KM Q1, estimate (95% CI)", "setting": "[4]; 25 mg (N = 22)", "value": "24.0 (2.0, 132.0) days"},
      {"measurement": "solubility", "setting": "[5]", "value": "~15", "unit": "mg/mL"},
      {"measurement": "EQ-5D-3L total score, least squares mean treatment difference", "setting": "[6]", "value": 0.06},
      {"measurement": "EuroQoL Visual Analogue Scale treatment difference", "setting": "[6]", "value": 6.77},
      {"measurement": "DSST least squares mean treatment difference", "setting": "[7]", "value": 1.32}
    ]}
  ]
}
